Experimental data published in BindingDB's records for doi:10.1111/cbdd.12379 (Quaid-I-Azam University, 2015).
pIC50: −log10 of the molar value.

Target: Urease [D459Y,K653P] (Canavalia ensiformis, UniProt P07374, D459Y/K653P)
Assay: In vitro Urease Inhibition Assay
Conditions: pH 8.2
Protocol: Urease inhibition activity was determined by indophenol method. […] Initially, urease enzyme and the test compound were incubated in the assay buffer for 30 minutes (in a linear reaction range) at 37 °C, 40 µL of phenol and alkali reagents were added to stop the reaction. […] All the assays were performed in triplicate.

Sequence of Urease [D459Y,K653P] (P07374 whole entry D459Y/K653P): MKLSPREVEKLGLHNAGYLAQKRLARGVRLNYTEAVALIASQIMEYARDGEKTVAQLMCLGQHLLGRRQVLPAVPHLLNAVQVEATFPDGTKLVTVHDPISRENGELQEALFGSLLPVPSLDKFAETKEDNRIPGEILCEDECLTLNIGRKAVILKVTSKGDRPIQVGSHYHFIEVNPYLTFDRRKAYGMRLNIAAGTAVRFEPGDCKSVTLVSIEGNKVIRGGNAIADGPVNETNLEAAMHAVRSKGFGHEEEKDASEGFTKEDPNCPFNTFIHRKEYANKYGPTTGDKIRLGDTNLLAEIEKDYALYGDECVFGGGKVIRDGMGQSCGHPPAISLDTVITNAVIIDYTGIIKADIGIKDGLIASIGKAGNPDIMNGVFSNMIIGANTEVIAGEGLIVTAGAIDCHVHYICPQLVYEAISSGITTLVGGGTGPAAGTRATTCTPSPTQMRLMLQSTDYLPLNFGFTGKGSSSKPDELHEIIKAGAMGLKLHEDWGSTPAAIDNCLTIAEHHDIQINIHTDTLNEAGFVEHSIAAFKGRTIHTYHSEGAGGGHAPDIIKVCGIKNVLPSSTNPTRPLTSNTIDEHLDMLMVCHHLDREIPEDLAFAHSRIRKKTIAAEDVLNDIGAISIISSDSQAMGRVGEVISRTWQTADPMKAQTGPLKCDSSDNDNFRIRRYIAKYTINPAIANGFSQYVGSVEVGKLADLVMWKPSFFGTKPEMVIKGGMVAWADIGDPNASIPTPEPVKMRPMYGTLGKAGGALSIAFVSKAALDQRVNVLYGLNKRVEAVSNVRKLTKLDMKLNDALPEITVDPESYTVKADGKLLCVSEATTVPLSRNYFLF

Compound	pIC50
NC(=S)N/N=C/Cc1ccco1 [[(E)-[2-(furan-2-yl)ethylidene]amino]thiourea (3f)]	6.24
NC(=S)N/N=C/Cc1ccc(OCc2ccccc2)cc1 [[(E)-{2-[4-(benzyloxy)phenyl]ethylidene}amino]thiourea (3k)]	5.44
COc1cc(C/C=N/NC(N)=S)ccc1OCc1ccccc1 [[(E)-{2-[4-(benzyloxy)-3-methoxyphenyl]ethylidene}amino]thiourea (3l)]	4.12
NC(=S)N/N=C/Cc1ccccn1 [[(E)-[2-(pyridin-2-yl)ethylidene]amino]thiourea (3a)]	5.58
NC(=S)N/N=C/Cc1cccnc1 [[(E)-[2-(pyridin-3-yl)ethylidene]amino]thiourea (3b)]	5.62
NC(=S)N/N=C/Cc1ccccc1 [[(E)-(2-phenylethylidene)amino]thiourea (3j)]	5.37
NC(=S)N/N=C/Cc1ccc2ccc3cccc4ccc1c2c34 [[(E)-[2-(pyren-1-yl)ethylidene]amino]thiourea (3m)]	5.32
Cc1ccc(C/C=N/NC(N)=S)o1 [[(E)-[2-(5-methylfuran-2-yl)ethylidene]amino]thiourea (3g)]	5.49
